Publication PMC7595621, “Quorum sensing N-Acyl homoserine lactones are a new class of anti-schistosomal” (PLoS Neglected Tropical Diseases, 2020)
Where two headings read alike, the source gives them in different places.

Experiments:
[1] = system: adult S. mansoni worm pairs; test: Screening of adult S. mansoni blood flukes (7-week worms), WHO-TDR motility scoring; type: cell-based, Schistosoma mansoni; conditions: for EC50: 7-week worms, motility, 95% confidence interval; for EC50 / effect on adult worm motility/lethality: 72 hr; for effect on adult worm motility/lethality: highest dose 20 μM
Method: (§1) Adult S. mansoni parasites were recovered by hepatic portal vein perfusion from TO outbred mice (HsdOla:TO, Tuck-Ordinary, Envigo, UK) that were percutaneously infected seven weeks earlier with 180 cercariae. Three adult worm pairs per well, in duplicate, were transferred into 48 well plates (Fisher Scientific, Loughborough, UK) and cultured at 37 °C in an atmosphere containing 5% CO2 in DMEM (Gibco, Paisley, UK) containing 10% v/v HEPES, 10% v/v Foetal Bovine Serum (FBS), 0.7% v/v 200 mM L-Glutamine and 1X v/v penicillin-streptomycin. Worms were dosed with test compounds at 20 μM, 10 μM, 5 μM, 2.5 μM, 1.25 μM and 0.625 μM (in 0.2% DMSO) for 72 hr. Adult worms were scored manually at 72 hr using the WHO-TDR metric scoring system as described previously. Dose response curves and EC50 values were obtained by non-linear regression, after log transformation of concentrations and data normalization using GraphPad Prism 7.02. At 72 hr, the medium from each well was also collected, centrifuged at 350 x g for 2 min. Afterwards, the supernatant was removed, and the remaining egg pellet re-suspended in 10% v/v formalin. Eggs that were oval and contained a fully formed lateral spine were subsequently counted.
(§2) Fig 3 Adult schistosome motility and egg production are differentially affected by the nine N-acyl homoserine lactones. […] Parasite motility was evaluated for each sex and scored using the WHO-TDR scoring system (0 = Dead parasite, 4 = Normal/Healthy movement). B) Culture media were collected from some adult co-cultures at 72 hrs and eggs present in the media were counted. p values are indicated as follows: * <0.05, ** <0.01, *** <0.001.
Initially, these screens were conducted at 20 μM; any compounds that scored a 1 or 0 for motility at this primary concentration were further titrated until no further effect was observed. […] Similar to the schistosomula assays, the differences observed in adult parasite motility when treated with the (R)- and (S)- enantiomers of Compound 1 were striking. […] Estimated EC50s for male and female parasites for these two enantiomers were determined (Table 2), with Compound 5 ((R)- enantiomer) having greater activity than Compound 6 ((S)- enantiomer).

[2] = system: S. mansoni schistosomula; test: Screening of S. mansoni schistosomula (Roboworm, motility and phenotype); type: cell-based, Schistosoma mansoni; conditions: for EC50: Schistosoma mansoni; for Selectivity index, schistosomula motility: HepG2 CC50 / schistosomula motility EC50; for Selectivity index, schistosomula phenotype: HepG2 CC50 / schistosomula phenotype EC50
Method: Biomphalaria glabrata (NMRI and the previously described pigmented strains) snails infected with S. mansoni (Puerto Rican strain) were shed for 2 hrs under light at 26 °C. Cercariae were collected, mechanically transformed into schistosomula and subsequently prepared for high throughput screening (HTS) on the Roboworm platform as previously described. Schistosomula were cultured in Basch Media (composed of BME media, 10% M169 media, 0.5x MEM vitamins, 10% Schneider’s insect media, 15.6mM Hepes, 5% heat inactivated FBS, 2x Antibiotic/anti-mycotic (Sigma-Aldrich, UK) solution (final concentrations shown)).
EC50 values were calculated from the titrated concentrations by non-linear regression, after log transformation of concentrations and data normalization using GraphPad Prism 7.02.
Fig 2 Anti-schistosomula activity of the eight analogues compared to parent compound 1. […] Test plates were incubated at 37°C for 72 hrs in an atmosphere containing 5% CO2. At 72hrs, schistosomula were scored using the Roboworm platform for both motility (A) and phenotype (B). Any compound that induced a score of below -0.35 for motility (A) and -0.15 for phenotype (B) were considered a hit. Black squares indicate the most positive effect on motility or phenotype; grey scale from dark grey to lighter shades of grey indicates a progressive reduced compound efficacy; white squares indicate no effect on either phenotype or motility. Z´ values for this screen was 0.41741 for motility and 0.57275 for phenotype. (C) Phenotypes of schistosomula when treated with 10μM of each of the test compounds and controls.
Supplementary file pntd.0008630.s003.tif: S1 Fig Initial schistosomula screens of the 14 compounds and their intermediate analogues. […] Test plates were incubated at 37°C for 72 hrs in an atmosphere containing 5% CO2. At 72hrs, schistosomula were scored using the Roboworm platform for both motility and phenotype as previously described. A) Of the 14 compounds evaluated, two fell within the hit region. Z’ scores for motility and phenotype were 0.40079 and 0.56846 respectively. […] Z´ scores for motility and phenotype were 0.37864 and 0.47882 respectively. *Average EC50 value across motility and phenotype is presented for each compound. (TIF) Click here for additional data file.

[3] = Cell cytotoxicity assay (MTT); type: cell-based, human; conditions: human, HepG2 cells, MTT, 95% confidence interval, called EC50
Method: The cytotoxicity of each compound was assessed on human HepG2 cells as described previously [17]. Briefly, 2 x 10^4 cells/well were seeded in black walled 96-well microtiter plates (Fisher Scientific, Loughborough, UK) and incubated for 24 hr at 37°C in a humidified atmosphere containing 5% CO2. […] Following a further incubation for 24 hr, the MTT assay was performed as previously described [17, 27]. Dose response curves were obtained by non-linear regression, after log transformation of concentrations and data normalization using GraphPad Prism 7.02.

[4] = system: adult S. mansoni worm pairs (egg production); test: In vitro egg production of adult S. mansoni worm pairs; type: cell-based, Schistosoma mansoni; conditions: 72 hr, compared to DMSO
Method: as §1, §2
As morbidity associated with schistosomiasis is caused by egg-induced granuloma formation in tissues and the subsequent development of fibrotic lesions around these granulomas, compound-mediated modulation of in vitro egg production (as a surrogate for the in vivo pathology initiator) was next assessed (Fig 3B). […] In comparison to the negative control DMSO, in which egg counts ranged from 300–594 (Average—408), all N-Acyl homoserine lactones affected fecundity.

[5] = system: E. coli ATCC 25922; test: Broth microdilution MIC and IC50 determination, E. coli; type: cell-based; conditions: Escherichia coli, ATCC25922, 24 h, 24 hr
Method: (§3) S. aureus ATCC 29213 and E. coli ATCC 25922 were cultured in Luria-Bertani (LB) medium at 37°C with aeration at 200 rpm for 24 hr, with all procedures performed in a biosafety level 2 (BSL2) cabinet. Stationary phase cultures were then used for minimum inhibitory concentration (MIC) determination using the broth microdilution method, in fresh LB medium, in a 96-well plate. All compounds were tested in triplicate using an initial bacterial concentration of 5.0 × 10^5 colony forming units (CFU)/mL at a final concentration of 125 mg/L (5% and 2.5% v/v methanol). Compounds with no visible growth at 125 mg/L were further evaluated with progressing dilutions. […] Dilutions were repeated in three independent experiments where the optical density (OD600) was measured in a Hidex plate spectrophotometer and absorbance data used for the calculation of an IC50 value. The IC50 value was obtained from a dose response titration (125–0.09 mg/L). Dose response curves were obtained by non-linear regression, after log transformation of concentrations and data normalization using GraphPad Prism 7.02.
(§4) As Compound 1 was structurally similar to N-acyl homoserine lactones, a compound class involved in bacterial quorum sensing, we decided to assess its antimicrobial activity and determine if enantiomer separation or lactone ring substitution would change this activity.

[6] = system: S. aureus ATCC 29213; test: Broth microdilution MIC and IC50 determination, S. aureus; type: cell-based, Staphylococcus aureus; conditions: Staphylococcus aureus, ATCC29213, 24 h, 24 hr
Method: as §3, §4

[7] = system: juvenile S. mansoni worms; test: Propidium iodide (PI) staining of juvenile S. mansoni worms; type: cell-based, Schistosoma mansoni; conditions: 15 μM, 72 hrs
Method: Juvenile S. mansoni parasites were recovered via hepatic portal vein perfusion from TO outbred mice (HsdOla:TO, Tuck-Ordinary, Envigo, UK) that were infected percutaneously three weeks earlier with 4000 cercariae. Preparation and centrifugation of juvenile worms have been described previously. […] After motility quantification, 2 μg/mL of PI was added to each well and the plate returned to 37°C, 5% CO2 for 15 minutes. Each well was subsequently imaged on the Roboworm platform using brightfield and fluorescent microscopy (excitation wavelength = 580 nm; emission wavelength = 604 nm). The number of PI positive vs PI negative juvenile worms were cross-checked with the motility scores obtained by our scoring matrix, and the data reported as percentage of PI positive across all parasites within the well. EC50 values were calculated from the motility scores obtained from the dose response titration (as detailed above) and dose response curves were obtained by non-linear regression, after log transformation of concentrations and data normalization using GraphPad Prism 7.02.
Three week juvenile schistosomes, incubated with compounds (1), (3) or controls for 72 hrs, were subsequently cultured with PI at a final concentration of 2 μg/mL for 15 minutes at 37 °C in an environment containing 5% CO2. PI positive parasites (dead) were counted and the percent live vs dead in each well is indicated. A) Quantification of compound (1) mediated juvenile death. B) Quantification of compound (3) mediated juvenile death.

[8] = Schistosoma mansoni, read-out: ADULT WORM EC50 Female
[9] = Schistosoma mansoni, read-out: ADULT WORM EC50 Male
[10] = 72 hrs, 95% confidence interval, read-out: SCHISTOSOMULA EC50 Motility
[11] = 72 hrs, 95% confidence interval, read-out: SCHISTOSOMULA EC50 Phenotype

Compound	EC50 [1, 8]	EC50 [1, 9]	effect on adult worm motility/lethality [1]	EC50 [2, 10]	EC50 [2, 11]	CC50 at 24 h [3]	also measured
CC(Br)C(=O)NC1CCOC1=O (centres unmarked) [Compound 2, 2-bromo-N-(2-oxotetrahydrofuran-3-yl)propanamide]	> 20 µM	> 20 µM	no activity	> 10 µM	> 10 µM	> 200 µM	–
CC(Br)C(=O)NC1CCSC1=O (centres unmarked) [Compound 4, 2-bromo-N-(2-oxotetrahydrothiophen-3-yl)propanamide]	18.4 µM	10.5 µM	only demonstrated lethality at the highest concentration	–	–	–	EC50 ([1]; read-out: ADULT WORM EC50 Female): > 10 µM; EC50 ([1]; read-out: ADULT WORM EC50 Male): > 10 µM; Selectivity index, schistosomula motility [2]: 15.4; Selectivity index, schistosomula phenotype [2]: 14.4
O=C(CBr)N[C@@H]1CCOC1=O [Compound 5, (R)-2-bromo-N-(2-oxotetrahydrofuran-3-yl)acetamide]	> 10 µM	> 10 µM	complete immobility	3.1 µM	4 µM	50.6 µM	effect on egg production (fecundity) [4]: reduced egg production; MIC ([5]; no visible growth): 125 µg/mL; MIC ([5]; value in square brackets): 563 µM; Selectivity index, schistosomula motility [2]: 16.3; Selectivity index, schistosomula phenotype [2]: 12.7; MIC ([6]; no visible growth): 125 µg/mL; MIC ([6]; value in square brackets): 563 µM
O=C(CBr)N[C@H]1CCOC1=O [Compound 6, (S)-2-bromo-N-(2-oxotetrahydrofuran-3-yl)acetamide]	> 20 µM	–	did not have this effect	> 10 µM	> 10 µM	> 100 µM	effect on egg production (fecundity) [4]: reduced egg production; MIC ([5]; no visible growth): > 125 µg/mL; MIC ([5]; value in square brackets): > 563 µM; Selectivity index, adult worm male ([1]; HepG2 CC50 / adult male EC50): 6.3; anti-schistosomula activity (phenotype and motility) ([2]; titration 10 to 0.625 μM, 72 hrs): no anti-schistosomula activity was observed; MIC ([6]; no visible growth): > 125 µg/mL; MIC ([6]; value in square brackets): > 563 µM
O=C(CCl)NC1CCOC1=O (centres unmarked) [Compound 7, 2-chloro-N-(2-oxotetrahydrofuran-3-yl)acetamide]	–	–	No lethality/motility defects were observed	–	–	–	–
O=C(CCl)NC1CCSC1=O (centres unmarked) [Compound 8, 2-chloro-N-(2-oxotetrahydrothiophen-3-yl)acetamide]	–	–	No lethality/motility defects were observed	–	–	–	–
CC(Cl)C(=O)NC1CCOC1=O (centres unmarked) [Compound 9, 2-chloro-N-(2-oxotetrahydrofuran-3-yl)propanamide]	–	–	No lethality/motility defects were observed	–	–	–	–
O[C@H]([C@H](O)COC(c1ccccc1)(c1ccccc1)c1ccccc1)[C@@H](O)COC(c1ccccc1)(c1ccccc1)c1ccccc1 [Compound E, (2R,3s,4S)-1,5-bis(trityloxy)pentane-2,3,4-triol]	–	–	–	–	–	–	effect on schistosomula motility and phenotype metrics in initial screen ([2]; 10 μM, 72 hrs): negatively affected both schistosomula motility and phenotype metrics; EC50 ([2]; 72 h, read-out: average EC50 for phenotype and motility, schistosomula): 5.6 µM
CC(=O)OC[C@H]1O[C@@H]([S-])[C@H](OC(C)=O)[C@@H](OC(C)=O)[C@@H]1OC(C)=O.CCP(CC)CC.[Au+] [auranofin, reference compound]	–	–	–	–	–	–	Percent P.I positive parasites [7]: 100%
